Measured values as given in patent US6399654B1, “Biflavanoids and derivatives thereof as antiviral agents” (priority 1995, dated 2002).
Values after ≈ are worked out from the molar mass of the structure shown. Like-named read-outs stand apart in the source and are kept apart here.

Assays:
[1] = in vitro; settings: dog, Neutral Red IC50 (cytotoxic)
[2] = Cytotoxicity by neutral red dye uptake, A549 cells; settings: human
[3] = test system: HSV-2; assay: HSV-2 CPE inhibition in HFF cells
[4] = test system: VZV; assay: VZV plaque reduction assay in HFF cells
[5] = test system: Respiratory Syncytial Virus; assay: microbe, parasite or virus in culture; type: cell-based; settings: human respiratory syncytial virus, MA104; read-out: CPE Inhibition EC50
[6] = test system: Parainfluenza Type 3 Virus; assay: organism not typed; type: cell-based; settings: MA104; Parainfluenza Type 3 Virus; read-out: CPI Inhibition EC50
[7] = Cytotoxicity by neutral red dye uptake, BSC-1 cells; settings: African green monkey
[8] = test system: Influenza A (H1N1) Texas/36/91; assay: microbe, parasite or virus in culture; type: cell-based, influenza A virus; settings: Influenza A virus, MDCK; Influenza A (H1N1) Texas/36/91; read-out: Neutral Red EC50
[9] = test system: Influenza A (H1N1) Texas/36/91; assay: microbe, parasite or virus in culture; type: cell-based, influenza A virus; settings: Influenza A virus, MDCK; Influenza A (H1N1) Texas/36/91; read-out: CPE Inhibition EC50
[10] = test system: Hepatitis B Virus (HBV); assay: Inhibition of HBV replication in 2.2.15 cells, extracellular (virion) HBV DNA; settings: for anti-HBV activity (in words): 2.2.15 cells;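 for all read-outs here: extracellular virion HBV DNA in culture medium measured by slot blot hybridization with a 32P-labeled HBV probe, quantified against HBV DNA standards, after 9 days of daily dosing, compared with day 0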
Protocol: Test compounds were added daily for a nine continuous day period; the culture medium was collected and stored for analysis of extracellular (virion) HBV DNA after 0, 3, 6, and 9 days of treatment. The treated cells were lysed 24 hours following day 9 of treatment for the analysis of intracellular HBV genomic forms. The overall levels of HBV DNA (both extracellular and intracellular DNA) and the relative rate of HBV replication (intracellular DNA) were analyzed quantitatively. The analysis was performed using blot hybridization techniques and [^32P]-labeled HBV-specific probes. The HBV DNA levels were measured by comparison to known amounts of HBV DNA standards applied to every nitrocellulose membrane (gel or slot blot). An AMBIS beta scanner, which measures the radioactive decay of the hybridized probes directly from the nitrocellulose membranes, was used for the quantitative analysis. Standard curves, generated by multiple analyses, were used to correlate CPM measurements made by the beta scanner with relative levels of target HBV DNA. The levels of HBV virion DNA released into the culture medium were analyzed by a slot blot hybridization procedure. HBV DNA levels were then compared to those at day 0 to determine the effect of the test compound. A known positive drug was evaluated in parallel with test compounds in each test.
Determination of therapeutic concentrations (EC50 and EC90) and toxicity concentrations (IC50) were determined as previously described (90). Stock solutions of text drugs were prepared in DMSO. Culture medium was changed daily and analyzed for extracellular HBV DNA after nine days of continuous drug exposure. Extracellular HBV DNA was extracted from the culture media and analyzed by a slot blot hydridization technique, using a ^32P-labeled Eco RI HBV DNA fragment, as previously described (91), and quantitated via comparison to HBV standards on a nitrocellulose filter, using an AMBIS beta scanner. Toxicity was determined by measuring inhibition of neutral red dye uptake. […] Effective concentration values for individual agents are the mean of six cultures per concentration point. Toxicity values are the mean of three cultures per concentration point.

[11] = test system: Adenovirus Type 5; assay: Adenovirus type 5 neutral red dye uptake in A549 cells; type: cell-based; settings: Human mastadenovirus C, A549; Adenovirus Type 5; read-out: Neutral Red EC50
[12] = test system: Measles Virus; assay: Measles virus neutral red dye uptake in BSC-1 cells; type: cell-based; settings: Measles morbillivirus, BSC-1
[13] = test system: Measles Virus; assay: microbe, parasite or virus in culture; type: cell-based
[14] = test system: Parainfluenza Type 3 Virus; assay: organism not typed; type: cell-based; settings: MA104, read-out: Neutral Red EC50
[15] = test system: Influenza B Panama/45/90; assay: microbe, parasite or virus in culture; type: cell-based; settings: Influenza B virus, MDCK; Influenza B Panama/45/90; read-out: CPE Inhibition EC50
[16] = biological target: T1, HIV-1 RT (Human immunodeficiency virus type 1 group M subtype B, UniProt P03366); assay: Anti-HIV-1 RT assay (recombinant enzyme); type: biochemical
T1 construct: made in house; host or cells: Escherichia coli

[17] = Cytotoxicity by neutral red dye uptake, MA-104 cells; settings: African green monkey, Neutral Red IC50 (cytotoxic)
[18] = test system: Adenovirus Type 5; assay: microbe, parasite or virus in culture; type: cell-based; settings: Human mastadenovirus C, A549, read-out: CPE Inhibition EC50
[19] = test system: Influenza A (H3N2) Beijing/32/92; assay: microbe, parasite or virus in culture; type: cell-based, influenza A virus; settings: Influenza A virus, MDCK; Influenza A (H3N2) Beijing/32/92; read-out: CPE Inhibition EC50
[20] = in vitro; settings: African green monkey
[21] = in vitro; settings: human
[22] = test system: Influenza A (H3N2) Beijing/32/92; assay: microbe, parasite or virus in culture; type: cell-based, influenza A virus; settings: Influenza A virus, MDCK; Influenza A (H3N2) Beijing/32/92; read-out: Neutral Red EC50
[23] = test system: HFF Cells; assay: Cytotoxicity (CC50) in HFF cells in the herpes virus tests; settings: HFF Cells, HSV-2 test
[24] = as above; settings: human
[25] = in vitro; settings: African green monkey; remark: listed apart in the source
[26] = test system: HSV-1; assay: HSV-1 CPE inhibition in HFF cells
[27] = test system: Respiratory Syncytial Virus; assay: microbe, parasite or virus in culture; type: cell-based; settings: human respiratory syncytial virus, MA104; read-out: Neutral Red EC50
[28] = in vitro; settings: dog
[29] = test system: HCMV; assay: HCMV CPE inhibition in HFF cells

O=C1CC(c2ccc(O)cc2)Oc2cc(O)c(-c3c(O)cc(O)c4c3OC(c3ccc(O)cc3)CC4=O)c(O)c21 (centres unmarked) [Rhusflavanone (9), rhusflavanone]
IC50 ([1]; Influenza A (H1N1) test): 26 mg/L (≈ 47.9 µM)
IC50 ([1]; Influenza A (H3N2) test): 31 mg/L (≈ 57.1 µM)
IC50 [2]: 15 mg/L (≈ 27.6 µM)
activity against HSV-2 (in words) [3]: active
HSV-2 SI (CC50/EC50) ([3]; HFF Cells): >6.4
EC50 ([3]; Human alphaherpesvirus 2, HFF, read-out: HSV-2 CPE Inhibition EC50): 15.7 mg/L (≈ 28.9 µM)
VZV SI (CC50/EC50) ([4]; HFF Cells): <4
EC50 ([4]; Human alphaherpesvirus 3, HFF, read-out: VZV Plaque Reduction EC50): > 4 mg/L
EC50 [5]: > 10 mg/L
EC50 [6]: > 100 mg/L
IC50 [7]: 40 mg/L (≈ 73.7 µM)
EC50 [8]: 24 mg/L (≈ 44.2 µM)
EC50 [9]: > 10 mg/L
anti-HBV activity (in words) ([10]; listed as rhusflavanone): inactive
anti-HBV activity (in words) ([10]; listed as rhusflavanone (9)): little or no anti-HBV activity
EC50 ([10]; Hepatitis B virus, 216 h, read-out: EC50 (50% effective dose), HBV Virion, 2.2.15 cells, extracellular (virion) HBV DNA, 9 days treatment): > 100 µM
EC90 ([10]; Hepatitis B virus, 216 h, read-out: EC90 (90% effective dose), HBV Virion, 2.2.15 cells, extracellular (virion) HBV DNA, 9 days treatment): > 100 µM
EC50 [11]: 33 mg/L (≈ 60.8 µM)
EC50 [12]: 5 mg/L (≈ 9.22 µM)
activity against measles virus (in words) [13]: some slight activity
EC50 ([13]; Measles morbillivirus, BSC-1, Measles Virus, read-out: CPI Inhibition EC50): 14 mg/L (≈ 25.8 µM)
EC50 [14]: 85 mg/L (≈ 157 µM)
EC50 [15]: 4.1 mg/L (≈ 7.56 µM)
activity against HIV-1 RT (in words) [16]: completely inactive
inhibition at 200 µg/mL ([16]; read-out: Anti-HIV-1 RT % Inhibition at 200 μg/ml): 14.1%
Anti-HIV-1 RT IC50 ([16]; values in parentheses or in words): Inactive
IC50 ([17]; Parainfluenza Type 3 Virus test): 30 mg/L (≈ 55.3 µM)
IC50 ([17]; Respiratory Syncytial Virus test): 20 mg/L (≈ 36.9 µM)
EC50 [18]: 56 mg/L (≈ 103 µM)
EC50 [19]: > 32 mg/L
IC50 ([20]; CPE Inhibition IC50 (cytotoxic), Respiratory Syncytial Virus test): 18 mg/L (≈ 33.2 µM)
IC50 ([20]; CPI Inhibition IC50 (cytotoxic), Parainfluenza Type 3 Virus test): 47 mg/L (≈ 86.6 µM)
IC50 [21]: 47 mg/L (≈ 86.6 µM)
EC50 [22]: 31 mg/L (≈ 57.1 µM)
HSV-2 CPE Inhibition CC50 [23]: >100 mg/L
CC50 at 3 days [24]: > 100 mg/L
CC50 at 10 days [24]: 16 mg/L (≈ 29.5 µM)
CC50 at 14 days [24]: 13.7 mg/L (≈ 25.3 µM)
IC50 [25]: 21 mg/L (≈ 38.7 µM)
HSV-1 SI (CC50/EC50) ([26]; HFF Cells): 0
EC50 ([26]; Human alphaherpesvirus 1, HFF, read-out: HSV-1 CPE Inhibition EC50): > 100 mg/L
EC50 [27]: 27 mg/L (≈ 49.8 µM)
IC50 ([28]; CPE Inhibition IC50 (50% cell inhibitory (cytotoxic) concentration), Influenza A (H1N1) test): 8.2 mg/L (≈ 15.1 µM)
IC50 ([28]; CPE Inhibition IC50 (cytotoxic), Influenza A (H3N2) test): 24 mg/L (≈ 44.2 µM)
IC50 ([28]; CPE Inhibition IC50 (cytotoxic), Influenza B test): 38 mg/L (≈ 70 µM)
HCMV SI (CC50/EC50) ([29]; HFF Cells): <3.4
EC50 ([29]; Human betaherpesvirus 5, HFF, read-out: HCMV CPE Inhibition EC50): > 4 mg/L
